Values joined by “and” are separate entries in the source; they are usually repeats but may differ in a detail not shown here. Equal entries are not always repeated. Where two headings read alike, the source gives them in different places. One block for each compound: values may come before it.
Experiments:
[1] = tested on: guinea pigs of normal Prayer's reflex; conditions: cited from earlier work; for Plasma AVP: continuous subcutaneous administration
[2] = tested on: experimental endolymphatic hydrops; assay: Endolymphatic hydrops decompression effect: IR-L, IR-S and regression lines in the operated ear; assay type: in vivo, guinea pigs; conditions: active agent 2.8 g/kg oral, alone or with additive; for Regression line IR-S vs IR-L: Y-intercept / Regression line IR-S vs IR-L: slope: operated ears, 3 hours after; for IR-L (%) increase ratio of the length of Reissner's membrane / IR-S (%) increase ratio of the cross-sectional area of the scala media: operated side, perfusion 3 hours after
Protocol: The endolymphatic hydrops-decompression effect of saccharides or sugar alcohols was evaluated by assaying as below in triplicate. Firstly, guinea pigs received the surgical obliteration of the endolymphatic sac in the left ear to prepare “experimental model animals with endolymphatic hydrops”. The surgical obliteration of the endolymphatic sac was carried out by burning the extraskeletal portion in the endolymphatic sac with a bipolar electrocoagulator. An endolymphatic sac plays an important role in the absorption of endolymphatic fluid. The inhibition of absorption of endolymphatic fluid was caused by burning the endolymphatic sac to prepare an experimental endolymphatic hydrops. Those hydrops are progressively formed. The size of hydrops becomes constant 2 weeks to month after the surgery and maintained for several months. In detail, see Non-patent Reference 8 for the surgery.
After 1 month, they were divided into 3 groups: Group 2-1 (groups 1-6), 60 animals; Group 2-2 (groups 7-10), 40 animals; and Group 2-3 (groups 11-20), […]. The animals in Group 2-1 received saccharides or sugar alcohols alone (Reference Example 5). The animals in Group 2-2 orally received saccharides or sugar alcohols added polysaccharides. The animals in Group 2-3 received other combinations of saccharides or sugar alcohols added polysaccharides. Animals were sacrificed after the oral administration and the observation and the assessment the gastrointestinal condition, and observed the morphological change of the cochlea mainly in the operated side (left side), in particular of the endolymphatic hydrops decompression effect.
I were obtained left sides of the temporal bones immediately following fixation and kept them in 10% formalin solution for 10 days or more. They were decalcified with 5% trichloroacetic acid and dehydrated with alcohol in increasing concentration, then embedded in paraffin and celloidin. The prepared blocks were cut serially in the horizontal plane. The mid-modiolar sections were stained in hematoxylin and eosin and studied under a light microscope. For the quantitative assessment of changes of the endolymphatic space, the change ratios of the length of Reissner's membrane and the cross-sectional area of the scala media in each turn were measured from the mid-modiolar sections of the cochlea.
From these parameters, the increase ratios (%) of the length of Reissner's membrane (IR-L) and the cross-sectional area (%) of the scala media (IR-S) of a total of four turns were calculated according to the equation as described below:
The increase ratio of the length of Reissner's membrane (IR-L)=100×Σ(Lx−L*x)/ΣL*x (x: first, second, third and fourth turns)
The increase ratio of the cross-section area of the scala media (IR-S)=100×Σ(Sx−S*x)/ΣS*x (x: first, second, third and fourth turns)
Since almost no difference is shown in the regression lines of each group, it cannot be understood that there is the decompression effect of erythritol alone. When endolymphatic hydrops is formed, the cross-sectional area of scala media and the length of Reissner's membrane will increase. It can be assumed from FIG. 1 that there is statistically a primary correlation between both of them in the operated side in the control group. The regression lines are; IR-S (distilled water)=4.011+1.212*IR-L (distilled water); R2=0.987, IR-S (1 hour after)=5.409+1.1*IR-L (1 hour after); R2=0.903, IR-S (2 hours after)=1.125+0.992*IR-L (2 hours after); R2=0.98, IR-S (3 hours after)=2.407+1.309*IR-L (3 hours after); R2=0.974, IR-S (6 hours after)=7.36+1.147*IR-L (6 hours after); R2=0.895, IR-S (12 hours after)=8.089+1.152*IR-L (12 hours after); R2=0.918.
The difference of decompression effect on endolymphatic hydrops depending on dose of pectin added and time-course of the decompression effect can hardly determined by comparing and analyzing the average and standard deviation of IR-L and IR-S in the operated side in each groups. […]

endolymphatic space = conditions: cited from earlier work; for Morphological change in the normal ear: glycerol 2.8 g/kg oral
[3] = tested on: guinea pigs excreting normal feces; assay: Antidiarrheal effect: observation of feces after oral administration of saccharides or sugar alcohols with or without polysaccharides (Example 1); assay type: in vivo
Protocol: The criteria for analyzing the conditions of feces (hardness, shape and spaces of feces in the intestine) are as shown in Table 2:
The hardness and microscopic findings of feces from the group administered with distilled water were assessed as “Normal” scoring 3, the feces having normal shape and the shape could rather easily change by pushing with fingers were assessed as “Slightly soft” scoring 2, those of which the shape had already changed or it could quite easily change by pushed with fingers were assessed as “Soft” scoring 1, and those of which the shape is muddy or watery or of no shape were assessed “Muddy” scoring 0. To be precese, there are no watery feces because of the nature of diets and thus the muddy feces correspond to watery and muddy feces in human.
Since the muddy feces comprise large content of water, they induce the high abdominal pressure and the flatulence and distension. […] In the case of gas generation, it appears that noxious symptom such as the flatulence and distension are synergistically deteriorated. Therefore, we assessed not only based on the hardness of feces, but also the size, smoothness of the surface and amount of feces.
In these experiments, I observed is the diarrhea caused by saccharides or sugar alcohols and antidiarrhreal effect of saccharides. Guinea pigs orally received saccharides or sugar alcohols, for example tetrose such as erythritol, pentose such as xylitol or xylose, hexose such as isosorbitol or the like in combination with or without polysaccharides for observation of the feces up to 6 hours after the administration.
Guinea pigs (body weight 280 to 320 g, normal feces) were divided into four groups: for Group 1-a, xylitol alone (Reference Example 1), or xylitol and xanthan gum or pectin; for Group 1-b, xylose alone (Reference Example 2), xylose and xanthan gum or pectin; for Group 1-c, erythritol alone (Reference Example 3), erythritol and pectin, erythritol and xanthan gum, or erythritol, pectin and natural aluminum silicate gel or calcium carbonate; and for Group 1-d, isosorbitol alone (Reference Example 4), or isosorbitol and xanthan gum or pectin were orally administered, respectively. The compounds are dissolved in distilled water and 8 ml/kg of said solution were administered as a single dose.
The feces were observed during 6 hours after the administration. When the animals fell into the most serious condition, the hardness and shape of the feces from said animals were assessed as the effect by saccharides or sugar alcohols in the animals.

guinea pigs = assay: Reference Example 7: erythritol or isosorbitol added jelly, conditions of feces and gastrointestinal tract; assay type: in vivo
Source text: As described hereinbefore, erythritol or isosorbitol as saccharides or sugar alcohols added jelly as a thickner were orally administered to 10 guinea pigs (280 to 350 g body weight) as shown in Table 41. The conditions of feces were observed.

[4] = active agent 1.4 g/kg oral, within 6 hours
[5] = active agent 2.1 g/kg oral, within 6 hours
[6] = active agent 2.8 g/kg oral, alone or with additive of the label
[7] = active agent 2.8 g/kg oral, alone or with additives of the label, most serious condition within 6 hours
[8] = active agent 3.5 g/kg oral, alone or with additive of the label, within 6 hours
[9] = active agent 5.6 g/kg oral, alone or with additive of the label, within 6 hours
[10] = agent 2.8 g/kg oral + Jelly 0.1 g/kg, 5 animals
[11] = agent 2.8 g/kg oral + Jelly 0.25 g/kg, 5 animals
[12] = agent 2.8 g/kg oral, no additive dosage (agent alone)
[13] = saccharide or sugar alcohol 2.8 g/kg oral, alone or with additive, feces observed for 6 hours

Compound: NC(=O)CC[C@@H]1NC(=O)[C@H](Cc2ccccc2)NC(=O)[C@H](Cc2ccc(O)cc2)NC(=O)[C@@H](N)CSSC[C@@H](C(=O)N2CCC[C@H]2C(=O)N[C@@H](CCCN=C(N)N)C(=O)NCC(N)=O)NC(=O)[C@H](CC(N)=O)NC1=O [AVP, arginine vasopressin]
Plasma AVP ([1]; AVP 0.2 mU/kg/min): 2.2 ± 0.4 pg/mL
Increase ratio (%) of the cross-sectional area of the scala media ([1]; AVP 0.2 mU/kg/min): 4.4 ± 0.7%
Plasma AVP ([1]; AVP 0.4 mU/kg/min): 3.5 ± 1.8 pg/mL
Increase ratio (%) of the cross-sectional area of the scala media ([1]; AVP 0.4 mU/kg/min): 10.4 ± 1.8%
Plasma AVP ([1]; AVP 1.0 mU/kg/min): 14.0 ± 3.9 pg/mL
Increase ratio (%) of the cross-sectional area of the scala media ([1]; AVP 1.0 mU/kg/min): 17.4 ± 7.9%
Formation of endolymphatic hydrops ([1]; AVP 1 mU/kg/minute, continuous, mini-pump subcutaneously): apparently produced endolymphatic hydrops

Compound: OCC(O)CO [Gly alone, glycerol]
Regression line IR-S vs IR-L: Y-intercept [2]: −2.455
Regression line IR-S vs IR-L: slope [2]: 0.887
IR-L (%) increase ratio of the length of Reissner's membrane [2]: 37.4 ± 31.2%
IR-S (%) increase ratio of the cross-sectional area of the scala media [2]: 31.0 ± 27.5%
Morphological change in the normal ear (endolymphatic space; 2 hours after): collapse
Morphological change in the normal ear (endolymphatic space; 6 hours after): mild hydrops
Time until exertion of effect after the oral administration (endolymphatic space): about 2 hours

Hardness of feces: Muddy (number of animals) [3, 4]: 0
Hardness of feces: Normal (number of animals) [3, 4]: 3
Hardness of feces: Slightly soft (number of animals) [3, 4]: 1
Hardness of feces: Soft (number of animals) [3, 4]: 0
Hardness of feces: Muddy (number of animals) [3, 5]: 0
Hardness of feces: Normal (number of animals) [3, 5]: 0
Hardness of feces: Slightly soft (number of animals) [3, 5]: 2
Hardness of feces: Soft (number of animals) [3, 5]: 2
Time after administration of the peak (most serious) diarrhea [3, 6]: Three to four hours after
Time after administration when diarrhea / softening of feces started [3, 6]: 2 h
Time after administration when feces recovered to (almost) normal [3, 6]: 6 h
Hardness of feces: Muddy (number of animals) [3, 7]: 1
Hardness of feces: Normal (number of animals) [3, 7]: 2
Hardness of feces: Slightly soft (number of animals) [3, 7]: 2
Hardness of feces: Soft (number of animals) [3, 7]: 2
Hardness of feces: Muddy (number of animals) [3, 8]: 3
Hardness of feces: Normal (number of animals) [3, 8]: 0
Hardness of feces: Slightly soft (number of animals) [3, 8]: 0
Hardness of feces: Soft (number of animals) [3, 8]: 1
Hardness of feces: Muddy (number of animals) [3, 9]: 3
Hardness of feces: Normal (number of animals) [3, 9]: 0
Hardness of feces: Slightly soft (number of animals) [3, 9]: 0
Hardness of feces: Soft (number of animals) [3, 9]: 0
Hardness of feces: Muddy (number of animals) (guinea pigs; [10]): 1
Hardness of feces: Normal (number of animals) (guinea pigs; [10]): 2
Hardness of feces: Slightly soft (number of animals) (guinea pigs; [10]): 0
Hardness of feces: Soft (number of animals) (guinea pigs; [10]): 2
Hardness of feces: Muddy (number of animals) (guinea pigs; [11]): 0
Hardness of feces: Normal (number of animals) (guinea pigs; [11]): 2
Hardness of feces: Slightly soft (number of animals) (guinea pigs; [11]): 0
Hardness of feces: Soft (number of animals) (guinea pigs; [11]): 3
Hardness of feces: Muddy (number of animals) (guinea pigs; [12]): 1
Hardness of feces: Normal (number of animals) (guinea pigs; [12]): 2
Hardness of feces: Slightly soft (number of animals) (guinea pigs; [12]): 2
Hardness of feces: Soft (number of animals) (guinea pigs; [12]): 3
Compound: O[C@@H]1CO[C@H]2[C@@H]1OC[C@@H]2O [Isosorbitol]
Regression line IR-S vs IR-L: Y-intercept ([2]; listed as IB alone): 7.143 and 6.542
Regression line IR-S vs IR-L: slope ([2]; listed as IB alone): 1.003 and 1.011
IR-L (%) increase ratio of the length of Reissner's membrane [2]: 31.3 ± 36.5%
IR-S (%) increase ratio of the cross-sectional area of the scala media [2]: 40.9 ± 38.2%
Time until exertion of effect after the oral administration (endolymphatic space): ~6 h

Hardness of feces 0 (Muddy): number of animals [3, 13]: 2 and 3
Hardness of feces 1 (Soft): number of animals [3, 13]: 2
Hardness of feces 3 (Normal): number of animals [3, 13]: 0
Compound: OC[C@@H](O)[C@@H](O)[C@H](O)[C@@H](O)CO [Sorbitol, sorbitol]

Hardness of feces: Muddy (number of animals) [3, 4]: 0
Hardness of feces: Normal (number of animals) [3, 4]: 5
Hardness of feces: Slightly soft (number of animals) [3, 4]: 0
Hardness of feces: Soft (number of animals) [3, 4]: 0
Hardness of feces: Muddy (number of animals) [3, 5]: 0
Hardness of feces: Normal (number of animals) [3, 5]: 4
Hardness of feces: Slightly soft (number of animals) [3, 5]: 1
Hardness of feces: Soft (number of animals) [3, 5]: 0
Time after administration when diarrhea / softening of feces started [3, 6]: 2 h
Time after administration when feces recovered to (almost) normal [3, 6]: 6 h
Hardness of feces: Muddy (number of animals) [3, 7]: 3
Hardness of feces: Normal (number of animals) [3, 7]: 0
Hardness of feces: Slightly soft (number of animals) [3, 7]: 1
Hardness of feces: Soft (number of animals) [3, 7]: 1
Compound: OC[C@@H](O)[C@H](O)[C@@H](O)CO [Xylitol, xylitol]
Time after administration of the peak (most serious) diarrhea [3, 6]: Three to four hours after the administration
Regression line IR-S vs IR-L: Y-intercept [2]: 2.371
Regression line IR-S vs IR-L: slope [2]: 1.208
IR-L (%) increase ratio of the length of Reissner's membrane [2]: 48.6 ± 40.3%
IR-S (%) increase ratio of the cross-sectional area of the scala media [2]: 60.1 ± 48.9%

Hardness of feces: Muddy (number of animals) [3, 7]: 1
Hardness of feces: Normal (number of animals) [3, 7]: 0
Hardness of feces: Slightly soft (number of animals) [3, 7]: 1
Hardness of feces: Soft (number of animals) [3, 7]: 3
Compound: O=C[C@H](O)[C@@H](O)[C@H](O)CO [Xylose, xylose]
Abdominal distension / gas by inspections and palpations [3, 6]: mild or moderate flatulence and distension
Regression line IR-S vs IR-L: Y-intercept [2]: 1.197
Regression line IR-S vs IR-L: slope [2]: 1.364
IR-L (%) increase ratio of the length of Reissner's membrane [2]: 29.7 ± 21.3%
IR-S (%) increase ratio of the cross-sectional area of the scala media [2]: 41.7 ± 30.1%

Hardness of feces 0 (Muddy): number of animals [3, 13]: 1
Hardness of feces 1 (Soft): number of animals [3, 13]: 2
Hardness of feces 2 (Slightly soft): number of animals [3, 13]: 1
Hardness of feces 3 (Normal): number of animals [3, 13]: 0
Compound: OC[C@@H](O)[C@@H](O)[C@H](O)[C@H](O)CO [mannitol]

Source: US8445461B2, “Pharmaceutical composition for meniere's disease” (Setsuko Takeda, priority 2007, dated 2013)
